The results in this text go back to patent US20250041282A1, “METHOD FOR TREATING INFLAMMATORY PULMONARY DISEASE” (FU JEN CATHOLIC UNIVERSITY, priority 2021, published 2025).

Assay [1] concerns RAW264.7 macrophages. The assay can be described thus: ELISA of cytokines in cell culture media. The format is cell-based, mouse. Particulars: pretreated 30 min, 100 ng/ml LPS 24 h; FIG. 5A/5B. The method, then: RANTES (RayBiotech), IL-1β and IL-6 (eBioscience, San Diego, CA, USA) concentrations in cell culture media and mouse serum were measured using ELISA kits according to the manufacturer's instructions. The plates were measured at […] using an Epoch microplate spectrophotometer (BioTek Instruments, Winooski, VT, USA). The concentrations of RANTES, IL-1β and IL-6 in the samples were determined by standard curves.
For identifying the potential signaling pathways which regulate the secretion of IL-6 and RANTES induced by LPS stimulation, RAW264.7 macrophages were pretreated with various kinase inhibitors for 30 min and then stimulated with/without 100 ng/ml LPS for 24 h; the cell culture media was harvested for ELISA assay. […] (FIG. 6A). To investigate whether FJU-C28 could mediate the transcriptional activity of NF-κB (p65), the translocation of NF-κB p65 was examined in LPS-stimulated macrophages.
(In general: In an ELISA, binding on a coated surface is turned into a signal by an enzyme label.)

For assay [2], the system named is RAW264.7 macrophages. The assay is described as follows: Western blotting of LPS-stimulated macrophage lysates. The format is cell-based, mouse. The note with it: LPS-induced RAW264.7; FIG. 6D. From the text: In brief, cell lysate was separated by 10% SDS-PAGE and transferred to a PVDF membrane (Hybond™-P, Amersham, Piscataway, NJ, USA). The blots were probed with anti-p38 (Catalogue Number: 8690P), anti-p-p38 (Thr180/Tyr182; Catalogue Number: 4511P), anti-ERK44/42 (Catalogue Number: 4695P), anti-p-ERK44/42 (Thr202/Tyr204; Catalogue Number: 4370P), anti-JNK (Catalogue Number: 9258P), anti-p-JNK (Thr183/Tyr185; Catalogue Number: 4668P), anti-p65 (Catalogue Number: 8242S), anti-STAT3 (Catalogue Number: 12640S), anti-p-STAT3 (Tyr705; Catalogue Number: 9145S) and anti-RANTES (Catalogue Number: 2989S) antibodies were provided by Cell Signaling Technology, Inc. (Danvers, MA, USA). Anti-Lamin A/C (Catalogue Number: 101127) antibodies were obtained from GeneTex, Inc. (San Antonio, TX, USA). Anti-β-Actin (Catalogue Number: SC-47778) and anti-COX2 (Catalogue Number: SC-1746) antibody was obtained from Santa Cruz Biotechnology, Inc. (Dallas, Texas, USA). The anti-iNOS (Catalog Number: 610329) antibody was obtained from BD transduction Lab. (San Jose, CA, USA). Bound antibodies were visualized by […] staining (Western Lighting Plus ECL; PerkinElmer, Wellesley, MA, USA) with autoradiography using FUJI Medical X-ray film (Fuji Corporation, Kofu, Yamanashi, Japan) or a MultiGel-21 multifunctional imaging system (TOPBIO, New Taipei, Taiwan). The intensity of the western blot bands was quantified by ImageJ software. The quantitative immunoblot data were normalized to the internal control protein and are expressed as the relative ratio of the treatment group to the control. The data represent the mean±S.D. of at least three independent experiments.
(In general: In western blotting, separated proteins are transferred to a membrane and probed.)

Molecules are shown by their SMILES.

As to `Cc1ccc(S(=O)(=O)/C=C/C#N)cc1` [BAY11-7082], in the assay on RAW264.7 macrophages [1], the “LPS-induced expression of IL-6 (ELISA), kinase inhibitors” value is on record as “suppressed” and the “LPS-induced expression of RANTES (ELISA), kinase inhibitors” value is “suppressed”.

Consider `CCOC(=O)C1=CCCC[C@H]1S(=O)(=O)Nc1ccc(F)cc1Cl` [CLI-095], for which, in the assay on RAW264.7 macrophages [1], the “LPS-induced expression of IL-6 (ELISA), kinase inhibitors” value was “suppressed” and the “LPS-induced expression of RANTES (ELISA), kinase inhibitors” value is given as “suppressed”.

As to `COc1cccc(-c2cc(=O)c3ccccc3o2)c1N` [PD98059], the “LPS-induced phosphorylation of STAT3” value in the assay on RAW264.7 macrophages [2] was “slightly suppressed”. Moreover, the “LPS-induced expression of IL-6 (ELISA), kinase inhibitors” value with RAW264.7 macrophages [1] is listed as “not”.

For the compound `C[S+]([O-])c1ccc(-c2nc(-c3ccncc3)c(-c3ccc(F)cc3)[nH]2)cc1` (stereo not drawn) [SB203580], the “LPS-induced phosphorylation of STAT3” value in the assay with RAW264.7 macrophages [2] was “inhibited”. Moreover, in the assay on RAW264.7 macrophages [1], the “LPS-induced expression of IL-6 (ELISA), kinase inhibitors” value is recorded as “suppressed” and the “LPS-induced expression of RANTES (ELISA), kinase inhibitors” value was “suppressed”.
